Data reported in patent US12187727B2, “Methods for antagonizing a melanocortin 4 receptor” (Pfizer Inc., priority 2020, dated 2025).
Like-named read-outs stand apart in the source and are kept apart here.

Legend:
hMC4R = hMC4R (Homo sapiens (Human), UniProt P32245); experiment: In vitro binding affinity assay using hMC4R (radioligand competition binding, [125I]-(Nle4, D-Phe7)-α-MSH); conditions: geometric mean, read-out: Ki (nM) geometric mean
Experimental: Example AA. In Vitro Binding Affinity Assay Using hMC4R
The binding affinity of test compounds at the […] (hMC4R) was assessed using a radioligand competition binding assay. […] Cell membranes were bulked and frozen until the assay was performed.
Compounds were solubilized in 100% dimethyl sulfoxide (DMSO) to a concentration of 30 mM. A 10-point intermediate dilution series using half log dilutions was created in 100% DMSO with a top concentration of 0.03 mM. […] The final compound range in the assay was 300 nM to 0.01 nM with a final DMSO concentration of 1%. […] The exact concentration of radioligand used for each experiment was determined by liquid scintillation counting and adjusted if necessary.
Frozen hMC4R cell membranes were thawed and Dounce homogenized. Homogenates were resuspended in assay buffer to a concentration of 2 μg per well. […] The plates were incubated for 2 hours at room temperature.
The raw data (expressed as counts per minute) were analyzed using ActivityBase (IDBS Data Management Software). […] Equilibrium dissociation constant for inhibitor of ligand and receptor interaction (Ki) values were then calculated from the IC50 values using the Cheng-Prusoff equation: Ki=IC50/(1+([L]/Kd)), where [L] is the concentration of the radioligand used in the experiment and Kd is the affinity of the radioligand (determined in separate saturation experiments).

[1] = target: human Melanocortin-4 receptor (MC4R) (Homo sapiens (Human), UniProt P32245); experiment: Functional in vitro MC4R antagonist potency assay (cAMP HTRF in CHO cells); format: cell-based; conditions: geometric mean, read-out: Kb (nM) Antagonist geometric
Sequence of human Melanocortin-4 receptor (MC4R) (P32245 whole entry): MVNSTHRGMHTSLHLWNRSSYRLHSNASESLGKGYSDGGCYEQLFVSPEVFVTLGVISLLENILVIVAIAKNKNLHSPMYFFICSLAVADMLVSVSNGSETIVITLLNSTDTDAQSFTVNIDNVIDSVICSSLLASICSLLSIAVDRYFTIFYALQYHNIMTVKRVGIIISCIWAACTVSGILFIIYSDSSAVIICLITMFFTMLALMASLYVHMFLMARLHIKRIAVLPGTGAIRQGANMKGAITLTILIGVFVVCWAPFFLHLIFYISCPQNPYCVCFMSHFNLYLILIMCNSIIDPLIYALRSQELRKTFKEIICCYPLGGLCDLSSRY
Experimental: Example BB. Functional In Vitro MC4R Antagonist Potency Assay
The functional in vitro antagonist potency for test compounds was determined by monitoring intracellular cyclic adenosine monophosphate (cAMP) levels in Chinese hamster ovary (CHO—) cells stably expressing the human Melanocortin-4 receptor (MC4R). Following agonist activation, human MC4R associates with the G-protein complex causing the Gα subunit to exchange bound GDP for GTP, followed by dissociation of the Ga-GTP complex. The activated Gα subunit can couple to downstream effectors to regulate the levels of second messengers or cAMP within the cell. Thereby, determination of intracellular cAMP levels allows for pharmacological characterization. Intracellular cAMP levels are quantitated using a homogenous assay utilizing the Homogeneous Time-Resolved Fluorescence (HTRF) technology from CisBio. The method is a competitive immunoassay between native cAMP produced by cells and the cAMP labelled with the acceptor dye, d2. The two entities then compete for binding to a monoclonal anti-cAMP antibody labeled with cryptate. The specific signal is inversely proportional to the concentration of cAMP in the cells.
Test compounds were solubilized to 30 mM in 100% dimethyl sulfoxide (DMSO) and stored. […] The final compound concentration range in the assay was 400 nM to […], with a final DMSO concentration of 0.1%.
(95% O2: 5% CO2) overnight, with micro-clime lids (Labcyte, Cat No. LLS-0310). […] Cells were incubated with compound for 30 minutes at 37° C. (95% O2: 5% CO2) before addition of 5 μL EC80, agonist stimulation (200 nM α-melanocyte stimulating hormone, aMSH, Bachem) and another 30-minute incubation at 37° C. (95% O2: 5% CO2). Intracellular cAMP levels were quantified as per Cisbio's protocol (5 uL of D2 and then 5 uL Cryptate, incubated for 1-2 hours at room temperature).
Data expressed as nM cAMP were then normalized to control wells using Activity Base (IDBS). Zero percent effect (ZPE) was defined as nM of cAMP generated from ECK, agonist stimulation (200 nM aMSH). In the absence of an antagonist control compound, one hundred percent effect (HPE) was defined as nM of cAMP generated from assay buffer/vehicle only.

[2] = human MC4R in CHO cells, cAMP HTRF, 200 nM aMSH challenge, Kb from IC50 by Leff-Dougall equation

Sequence of hMC4R (P32245 whole entry): as above

Row | Compound | Ki (hMC4R) [nM] | Kb [1, 2] [nM] | further results
1 | Cc1nc2c(cc1-c1ncccn1)CC[C@@]1(CCN(C(=O)C(C)c3ccc(OC(F)F)nc3)C1)N2 (single isomer, unassigned) [Example 5] | > 200 | – | –
2 | Cc1ccc2c(n1)NC1(CCN(C(=O)Cc3ccc(F)cc3)C1)CC2C (single isomer, unassigned) [Example 9, 1-(4,7-dimethyl-3,4-dihydro-1H-spiro[1,8-naphthyridine-2,3′-pyrrolidin]-1′-yl)-2-(4-fluorophenyl)ethan-1-one] | 380 | – | –
3 | Cc1ccc2c(n1)NC1(CCN(C(=O)Cc3ccc(F)cc3)C1)CC2C (single isomer, unassigned) [Example 10, 1-(4,7-dimethyl-3,4-dihydro-1H-spiro[1,8-naphthyridine-2,3′-pyrrolidin]-1′-yl)-2-(4-fluorophenyl)ethan-1-one] | 440 | – | –
4 | Cc1ccc2c(n1)NC1(CCN(C(=O)Cc3ccc(F)cc3)C1)CC2C (single isomer, unassigned) [Example 11, 1-(4,7-dimethyl-3,4-dihydro-1H-spiro[1,8-naphthyridine-2,3′-pyrrolidin]-1′-yl)-2-(4-fluorophenyl)ethan-1-one] | > 2200 | – | –
5 | Cc1ccc2c(n1)NC1(CCN(C(=O)Cc3ccc(F)cc3)C1)CC2C (single isomer, unassigned) [Example 12, 1-(4,7-dimethyl-3,4-dihydro-1H-spiro[1,8-naphthyridine-2,3′-pyrrolidin]-1′-yl)-2-(4-fluorophenyl)ethan-1-one] | > 2200 | – | –
6 | Cc1nc2c(cc1-c1cnn(C)c1)CCC1(CCN(C(=O)Cc3ccc(F)cc3)C1)N2 (single isomer, unassigned) [Example 19, 2-(4-fluorophenyl)-1-[7-methyl-6-(1-methyl-1H-pyrazol-4-yl)-3,4-dihydro-1H-spiro[1,8-naphthyridine-2,3′-pyrrolidin]-1′-yl]ethan-1-one] | > 220 | – | –
7 | Cc1nc2c(cc1-c1cnn(C)c1)CCC1(CCN(C(=O)Cc3ccc(F)cc3)C1)N2 (single isomer, unassigned) [Example 20, 2-(4-fluorophenyl)-1-[7-methyl-6-(1-methyl-1H-pyrazol-4-yl)-3,4-dihydro-1H-spiro[1,8-naphthyridine-2,3′-pyrrolidin]-1′-yl]ethan-1-one] | 0.6 | – | –
8 | COc1cc([C@@H](C)C(=O)N2CC[C@@]3(CCc4cc(-c5ncccn5)c(C)nc4N3)C2)c(C(F)F)cn1 (single isomer, unassigned) [Example 37] | 180 | – | –
9 | COc1cc([C@@H](C)C(=O)N2CC[C@@]3(CCc4cc(-c5cnc(C)nc5)c(C)nc4N3)C2)c(F)cn1 [Example 151, (2R)-2-(5-fluoro-2-methoxypyridin-4-yl)-1-[(2S)-7-methyl-6-(2-methylpyrimidin-5-yl)-3,4-dihydro-1H-spiro[1,8-naphthyridine-2,3′-pyrrolidin]-1′-yl]propan-1-one] | – | 40 | –
10 | COc1cc([C@@H](C)C(=O)N2CC[C@@]3(CCc4cc(-c5cnc(C)s5)c(C)nc4N3)C2)c(F)cn1 [Example 153, (2R)-2-(5-fluoro-2-methoxypyridin-4-yl)-1-[(2S)-7-methyl-6-(2-methyl-1,3-thiazol-5-yl)-3,4-dihydro-1H-spiro[1,8-naphthyridine-2,3′-pyrrolidin]-1′-yl]propan-1-one] | – | 15 | –
11 | COc1cc([C@@H](C)C(=O)N2CC[C@@]3(CCc4cc(-c5cnn6cccnc56)c(C)nc4N3)C2)c(F)cn1 [Example 154, (2R)-2-(5-fluoro-2-methoxypyridin-4-yl)-1-[(2S)-7-methyl-6-(pyrazolo[1,5-a]pyrimidin-3-yl)-3,4-dihydro-1H-spiro[1,8-naphthyridine-2,3′-pyrrolidin]-1′-yl]propan-1-one] | – | 9.5 | –
12 | COc1cc([C@@H](C)C(=O)N2CC[C@@]3(CCc4cc(-c5cncc(C)n5)c(C)nc4N3)C2)c(F)cn1 [Example 156, (2R)-2-(5-fluoro-2-methoxypyridin-4-yl)-1-[(2S)-7-methyl-6-(6-methylpyrazin-2-yl)-3,4-dihydro-1H-spiro[1,8-naphthyridine-2,3′-pyrrolidin]-1′-yl]propan-1-one] | – | 20 | –
13 | COc1cc([C@@H](C)C(=O)N2CC[C@@]3(CCc4cc(-c5cnc(C)cn5)c(C)nc4N3)C2)c(F)cn1 [Example 158, (2R)-2-(5-fluoro-2-methoxypyridin-4-yl)-1-[(2S)-7-methyl-6-(5-methylpyrazin-2-yl)-3,4-dihydro-1H-spiro[1,8-naphthyridine-2,3′-pyrrolidin]-1′-yl]propan-1-one] | – | 23 | –
14 | COc1cc([C@@H](C)C(=O)N2CC[C@@]3(CCc4cc(-c5nccnc5C)c(C)nc4N3)C2)c(F)cn1 [Example 164, (2R)-2-(5-fluoro-2-methoxypyridin-4-yl)-1-[(2S)-7-methyl-6-(3-methylpyrazin-2-yl)-3,4-dihydro-1H-spiro[1,8-naphthyridine-2,3′-pyrrolidin]-1′-yl]propan-1-one] | – | > 57 | –
15 | COc1cc([C@@H](C)C(=O)N2CC[C@@]3(CCc4cc(-c5cccc(C(F)F)n5)c(C)nc4N3)C2)c(F)cn1 [Example 181, (2R)-1-{(2S)-6-[6-(difluoromethyl)pyridin-2-yl)-7-methyl-3,4-dihydro-1H-spiro[1,8-naphthyridine-2,3′-pyrrolidin]-1′-yl}-2-(5-fluoro-2-methoxypyridin-4-yl)propan-1-one] | – | 14 | –
16 | COc1cc([C@@H](C)C(=O)N2CC[C@@]3(CCc4cc(-c5nc(C)n(C(F)F)n5)c(C)nc4N3)C2)c(F)cn1 [Example 188, (2R)-1-{(2S)-6-[1-(difluoromethyl)-5-methyl-1H-1,2,4-triazol-3-yl]-7-methyl-3,4-dihydro-1H-spiro[1,8-naphthyridine-2,3′-pyrrolidin]-1′-yl}-2-(5-fluoro-2-methoxypyridin-4-yl)propan-1-one] | – | 0.086 | –
17 | COc1cc([C@@H](C)C(=O)N2CC[C@@]3(CCc4cc(-c5nc(C(F)F)n(C6CC6)n5)c(C)nc4N3)C2)c(F)cn1 [Example 189, (2R)-1-{(2S)-6-[1-cyclopropyl-5-(difluoromethyl)-1H-1,2,4-triazol-3-yl]-7-methyl-3,4-dihydro-1H-spiro[1,8-naphthyridine-2,3′-pyrrolidin]-1′-yl}-2-(5-fluoro-2-methoxypyridin-4-yl)propan-1-one] | – | 4.3 | –
18 | COc1cc([C@@H](C)C(=O)N2CC[C@@]3(CCc4cc(-c5cccc(OC(F)F)n5)c(C)nc4N3)C2)c(F)cn1 [Example 198, (2R)-1-{(2S)-6-[6-(difluoromethoxy)pyridin-2-yl]-7-methyl-3,4-dihydro-1H-spiro[1,8-naphthyridine-2,3′-pyrrolidin]-1′-yl}-2-(5-fluoro-2-methoxypyridin-4-yl)propan-1-one] | – | 8.3 | –
19 | COc1cc([C@@H](C)C(=O)N2CC[C@@]3(CCc4cc(-c5ccc(C6CC6)nn5)c(C)nc4N3)C2)c(F)cn1 [Example 199, (2R)-1-[(2S)-6-(6-cyclopropylpyridazin-3-yl)-7-methyl-3,4-dihydro-1H-spiro[1,8-naphthyridine-2,3′-pyrrolidin]-1′-yl]-2-(5-fluoro-2-methoxypyridin-4-yl)propan-1-one] | – | > 54 | –
20 | COc1cc([C@@H](C)C(=O)N2CC[C@@]3(CCc4cc(-c5nccc(C(F)F)n5)c(C)nc4N3)C2)c(F)cn1 [Example 200, (2R)-1-{(2S)-6-[4-(difluoromethyl)pyrimidin-2-yl]-7-methyl-3,4-dihydro-1H-spiro[1,8-naphthyridine-2,3′-pyrrolidin]-1′-yl}-2-(5-fluoro-2-methoxypyridin-4-yl)propan-1-one] | – | – | Kb ([1]; cAMP HTRF in CHO cells expressing human MC4R, 200 nM aMSH, Kb by Leff-Dougall equation): 0.59 nM
